Measurements taken from patent US9725442B2, “Heterocyclic derivative having PGD2 receptor antagonist activity” (Shionogi & Co., Ltd., priority 2011, dated 2017).

Molecular target: human ether-a-go-go related gene (hERG) channel (Homo sapiens (Human), UniProt Q12809)
Assay: hERG test (IKr, whole cell patch clamp in HEK293 cells)
Assay type: cell-based
Conditions: 1 μmol/L of the compound, HEK293 cells expressing hERG
From the text: For the purpose of assessing risk of an electrocardiogram QT interval prolongation, effects on delayed rectifier K+ current (IKr), which plays an important role in the ventricular repolarization process of the compound of the present invention, was studied using HEK293 cells expressing human ether-a-go-go related gene (hERG) channel.
After a cell was retained at a membrane potential of −80 mV by whole cell patch clamp method using an automated patch clamp system (PatchXpress 7000A, Axon Instruments Inc.) and given leakage potential at −50 mV, IKr induced by depolarization pulse stimulation at +40 mV for 2 seconds and, further, repolarization pulse stimulation at −50 mV for 2 seconds was recorded. After the generated current was stabilized, extracellular solution (NaCl: 135 mmol/L, KCl: 5.4 mmol/L, […]: 0.3 mmol/L, CaCl2.2H2O: 1.8 mmol/L, MgCl2.6H2O: 1 mmol/L, glucose: 10 mmol/L, HEPES (4-(2-hydroxyethyl)-1-piperazineethanesulfonic acid): 10 mmol/L, pH=7.4) in which a compound of the present invention had been dissolved at an objective concentration was applied to the cell under the room temperature condition for 10 minutes. From the recording IKr, an absolute value of the tail peak current was measured based on the current value at the resting membrane potential using an analysis software (DataXpress ver. 2, Molecular Devices Corporation).

human ether-a-go-go related gene (hERG) channel, sequence (Q12809 whole entry): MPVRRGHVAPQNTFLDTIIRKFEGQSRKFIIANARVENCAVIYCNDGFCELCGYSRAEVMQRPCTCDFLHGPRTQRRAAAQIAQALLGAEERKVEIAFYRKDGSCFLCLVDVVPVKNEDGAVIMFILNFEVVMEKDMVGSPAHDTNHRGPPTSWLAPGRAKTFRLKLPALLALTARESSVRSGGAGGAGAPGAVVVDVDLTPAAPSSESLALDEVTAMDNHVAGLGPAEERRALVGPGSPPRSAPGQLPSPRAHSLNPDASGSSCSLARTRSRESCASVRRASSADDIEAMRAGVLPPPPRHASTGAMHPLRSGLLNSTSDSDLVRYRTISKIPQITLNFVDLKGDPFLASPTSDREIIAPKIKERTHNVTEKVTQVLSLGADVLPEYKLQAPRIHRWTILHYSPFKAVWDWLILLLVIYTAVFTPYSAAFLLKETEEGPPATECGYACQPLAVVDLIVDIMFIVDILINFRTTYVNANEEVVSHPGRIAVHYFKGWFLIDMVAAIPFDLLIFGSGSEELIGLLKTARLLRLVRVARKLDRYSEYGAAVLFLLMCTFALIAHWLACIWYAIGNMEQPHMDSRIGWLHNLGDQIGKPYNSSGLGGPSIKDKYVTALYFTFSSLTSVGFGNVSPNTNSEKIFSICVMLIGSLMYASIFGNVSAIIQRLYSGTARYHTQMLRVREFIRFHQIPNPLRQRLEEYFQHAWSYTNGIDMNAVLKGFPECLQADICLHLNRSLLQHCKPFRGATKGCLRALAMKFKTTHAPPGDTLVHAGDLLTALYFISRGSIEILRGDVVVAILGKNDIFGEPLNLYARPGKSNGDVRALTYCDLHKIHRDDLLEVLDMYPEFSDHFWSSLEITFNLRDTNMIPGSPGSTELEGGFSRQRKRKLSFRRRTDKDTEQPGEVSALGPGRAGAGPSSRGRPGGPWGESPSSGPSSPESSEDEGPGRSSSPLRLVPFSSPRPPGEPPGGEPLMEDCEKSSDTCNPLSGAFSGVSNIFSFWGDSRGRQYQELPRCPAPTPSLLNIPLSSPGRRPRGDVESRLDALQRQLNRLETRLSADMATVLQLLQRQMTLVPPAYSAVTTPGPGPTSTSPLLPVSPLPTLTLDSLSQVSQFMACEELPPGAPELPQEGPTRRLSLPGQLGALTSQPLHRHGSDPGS

SMILES: CC(C)Oc1ccc(S(=O)(=O)N2C[C@@H](C)[C@@H](n3nc(CC(=O)O)c4ccc(F)cc43)C2)cc1 [Compound I-37]
- % inhibition of IKr tail peak current: 7.1%
